Patent US7265147B2, “3,6-disubstituted azabicyclo [3.1.0]hexane derivatives useful as muscarinic receptor antagonists” (Ranbaxy Laboratories Limited, priority 2002, dated 2007)
Where two headings read alike, the source gives them in different places.

What was measured:
M2 muscarinic receptor = biological target: T1, M2 muscarinic receptor (Rattus norvegicus, UniProt P10980); assay: Radioligand binding assay, [3H]-N-methylscopolamine, rat heart membranes
T1 construct: Submandibular glands and heart were isolated and placed in ice cold homogenising buffer; from tissue; host or cells: rat heart membrane homogenate
T1 sequence (P10980 1-466): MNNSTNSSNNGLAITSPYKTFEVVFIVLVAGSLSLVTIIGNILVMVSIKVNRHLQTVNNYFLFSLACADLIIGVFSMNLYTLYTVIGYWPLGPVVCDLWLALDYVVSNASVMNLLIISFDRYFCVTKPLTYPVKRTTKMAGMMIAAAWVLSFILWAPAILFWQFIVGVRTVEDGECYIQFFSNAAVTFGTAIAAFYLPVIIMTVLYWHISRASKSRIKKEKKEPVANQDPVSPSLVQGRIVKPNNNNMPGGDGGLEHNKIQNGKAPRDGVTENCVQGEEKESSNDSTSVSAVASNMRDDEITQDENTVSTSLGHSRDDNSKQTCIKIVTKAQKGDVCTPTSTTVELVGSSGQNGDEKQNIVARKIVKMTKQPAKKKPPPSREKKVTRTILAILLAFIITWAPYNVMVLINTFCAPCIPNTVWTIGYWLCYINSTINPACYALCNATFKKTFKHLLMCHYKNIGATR

M3 muscarinic receptor [1] = biological target: T2, M3 muscarinic receptor (Rattus norvegicus, UniProt P08483); assay: biochemical
T2 sequence (P08483 whole entry): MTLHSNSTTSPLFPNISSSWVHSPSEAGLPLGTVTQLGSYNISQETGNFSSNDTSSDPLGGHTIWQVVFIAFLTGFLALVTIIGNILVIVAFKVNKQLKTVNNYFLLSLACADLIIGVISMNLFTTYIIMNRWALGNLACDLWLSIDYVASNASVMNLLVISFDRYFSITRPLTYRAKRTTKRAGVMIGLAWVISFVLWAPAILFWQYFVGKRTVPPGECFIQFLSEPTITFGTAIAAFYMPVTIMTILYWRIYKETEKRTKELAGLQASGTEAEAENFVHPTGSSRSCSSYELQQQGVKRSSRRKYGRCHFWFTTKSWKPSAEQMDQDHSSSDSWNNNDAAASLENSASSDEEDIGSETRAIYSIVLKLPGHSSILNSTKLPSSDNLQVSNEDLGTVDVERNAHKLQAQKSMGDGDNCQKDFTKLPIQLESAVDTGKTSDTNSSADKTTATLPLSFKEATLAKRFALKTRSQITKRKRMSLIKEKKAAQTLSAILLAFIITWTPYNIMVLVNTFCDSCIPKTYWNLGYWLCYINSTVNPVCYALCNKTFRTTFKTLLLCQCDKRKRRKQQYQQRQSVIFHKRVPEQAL

M3 muscarinic receptor [2] = biological target: T2, M3 muscarinic receptor; conditions: for Ki: read-out: Receptor Binding Assay Ki (nM) M3
[3] = read-out: Receptor Binding Assay Ki (nM) M2

| Compound | Ki (M2 muscarinic receptor) | Ki (M3 muscarinic receptor [1]) | Selectivity (M2/M3) (M3 muscarinic receptor [2]) | Ki (M2 muscarinic receptor; [3]) | Ki (M3 muscarinic receptor [2]) |
| --- | --- | --- | --- | --- | --- |
| O=C(NCC#CCN1C[C@H]2C[C@H]2C1)C(O)(c1ccccc1)c1ccccc1 [Compound No. 11, N-{4-[(1R, 5S)-3-azabicyclo[3.1.0]-hex-3-yl]but-2-ynyl}-2-hydroxy-2,2-diphenylacetamide] | 639 nM | – | – | – | – |
| O=C(NCC#CCN1C[C@H]2C[C@H]2C1)C(O)(c1ccccc1)C1CCCCC1 (stereo partly drawn) [Compound No. 9, N-{4-[(1R, 5S)-3-azabicyclo[3.1.0]-hex-3-yl]but-2-ynyl}-2-hydroxy-2-cyclohexyl-2-phenylacetamide] | 3580 nM | – | – | – | – |
| O=C(NCC#CCN1C[C@H]2C[C@H]2C1)C(O)(c1ccc(F)cc1)c1ccc(F)cc1 [Compound No. 12, N-{4-[(1R,5S)-3-azabicyclo[3.1.0]-hex-3-yl]-but-2-ynyl}2-hydroxy-bis(4-florophenyl)acetamide] | 736 nM | – | – | – | – |
| O=C(NCC#CCN1C[C@H]2C[C@H]2C1)C(O)(c1ccccc1)C1CCCC1 (stereo partly drawn) [Compound No. 10, N-{4-[(1R, 5S)-3-azabicyclo[3.1.0]-hex-3-yl]but-2-ynyl}-2-hydroxy-2-cyclopentyl-2-phenylacetamide] | 425 nM | 330 nM | 1.28 | – | – |
| 4-[(1S,5R)-2-methyl-3-azabicyclo[3.1.0]hex-3-yl]-but-2-ynyl-2-cyclohexyl-2-hydroxyphenylacetate [Compound No. 18] | – | – | 7.708 | 185 nM | 24 nM |
| 4-[(1S,5R)-2-methyl-3-azabicyclo[3.1.0]hex-3-yl]-but-2-ynyl-2-cyclopentyl-2-hydroxyphenylacetate [Compound No. 17] | – | – | 3.641 | 142 nM | 39 nM |
